Data as given in patent publication US6919328B1, “Tricyclic compounds with NOS activity” (Neuraxon Inc., priority 2001, dated 2005).
Where a name gives a salt, the structure may show the parent alone.

Experiments:
nNOS = nNOS (Homo sapiens, UniProt P29475); test: nNOS enzyme assay (hemoglobin capture assay); format: biochemical; conditions: for IC50: hemoglobin capture assay, initial velocity, read-out: IC50 of NOS, nNOS; for inhibition at 100 µM: read-out: Percent Inhibition of NOS, nNOS
Procedure: (§1) The generation of nitric oxide by NOS was measured using the hemoglobin capture assay (Proc. Natl. Acad. Sci., U.S.A. 1990, 87, 714). As assay mixture for nNOS contained […], 1.6 mM CaCl2, […] calmoduline, […], 6.5 mM BH4 and 3 mM oxyhemoglobin in 100 mM Hepes (pH 7.5). The reaction mixture for iNOS contained 10 mM of L-arginine, […], 6.5 mM BH4 and 3 mM oxyhemoglobin in 100 mM Hepes (pH 7.5). All assays were in a final volume of […] and were initiated with enzyme. Nitric oxide reacts with oxyhemoglobin to yield methehemoglobin which is detected at 401 nm (e=19,700 M^−1cm^−1) on a Perkin-Elmer Lamda 10 UV/vis spectrophotometer.
(§2) IC50 and percent inhibition of NOS by the compounds of the invention was determined under initial velocity measurement condition with hemoglobin capture assay as described above using varying concentrations of the compounds of the invention.

iNOS = iNOS (Homo sapiens, UniProt P35228); test: iNOS enzyme assay (hemoglobin capture assay); format: biochemical; conditions: for IC50: hemoglobin capture assay, initial velocity, read-out: IC50 of NOS, iNOS; for inhibition at 100 µM: read-out: Percent Inhibition of NOS, iNOS
Procedure: as §1, §2

CC(=O)Nc1ccc2c(c1)C(=O)Nc1ccccc1N2 [Example 7, N-(11-Oxo-10,11-dihydro-5H-dibenzo[b,e][1,4]diazepin-2-yl)-acetamide]
IC50 (nNOS): 400 µM
IC50 (iNOS): 500 µM

O=C(NC(=S)Nc1ccc2c(c1)C(=O)Nc1ccccc1N2)c1ccccc1 [Example 8, 1-Benzoyl-3-(11-oxo-10,11-dihydro-5H-dibenzo[b,e][1,4]diazepin-2-yl)-thiourea]
IC50 (nNOS): 120 µM
IC50 (iNOS): 300 µM

NC(=S)Nc1ccc2c(c1)C(=O)Nc1ccccc1N2 [Example 9, (11-Oxo-10,11-dihydro-5H-dibenzo[b,e][1,4]diazepin-2-yl)-thiourea]
IC50 (nNOS): 250 µM
IC50 (iNOS): 300 µM

CCSC(=N)Nc1ccc2c(c1)C(=O)Nc1ccccc1N2 [Example 10, 2-Ethyl-1-(11-oxo-10,11-dihydro-5H-dibenzo[b,e][1,4]diazepin-2-yl)-isothiourea]
IC50 (nNOS): 20 µM
IC50 (iNOS): 100 µM

CC(=N)Nc1ccc2c(c1)C(=O)Nc1ccccc1N2 [Example 11, N-(11-Oxo-10,11-dihydro-5H-dibenzo[b,e][1,4]diazeoin-2-yl)-acetamidine hydrobromide]
IC50 (nNOS): 200 µM
IC50 (iNOS): 500 µM

N=C(Nc1ccc2c(c1)C(=O)Nc1ccccc1N2)SCc1ccc2ccccc2c1 [Example 12, 2-Naphthalen-2-ylmethyl-1-(11-oxo-10,11-dihydro-5H-dibenzo[b,e][1,4]diazepin-2-yl)-isothiourea]
inhibition at 100 µM (nNOS): 21%
inhibition at 100 µM (iNOS): 28%

N=C(Nc1ccc2c(c1)C(=O)Nc1ccccc1N2)SCc1ccccc1 [Example 13, 2-Benzyl-1-(11-oxo-10,11-dihydro-5H-dibenzo[b,e][1,4]diazepin-2-yl)-isothiourea]
inhibition at 100 µM (nNOS): 48%
inhibition at 100 µM (iNOS): 29%

CC(=N)Nc1ccc2c(c1)C(=O)Nc1ccccc1O2 [Example 14, N-(11-Oxo-10,11-dihydro-dibenzo[b,f][1,4]oxazepin-2-yl)-acetamidine]
IC50 (nNOS): 200 µM
IC50 (iNOS): 300 µM

O=C(NC(=S)Nc1ccc2c(c1)C(=O)Nc1ccccc1O2)c1ccccc1 [Example 15, 1-Benzoyl-3-(11-oxo-10,11-dihydro-dibenzo[b,f][1,4]oxazepin-2-yl)-thiourea]
IC50 (nNOS): 100 µM
IC50 (iNOS): 200 µM

NC(=S)Nc1ccc2c(c1)C(=O)Nc1ccccc1O2 [Example 16, (11-Oxo-10,11-dihydro-dibenzo[b,f][1,4]oxazepin-2-yl)-thiourea]
IC50 (nNOS): 200 µM
IC50 (iNOS): 150 µM

O=C1Nc2ccccc2Oc2ccc(NC(=S)Nc3ccccc3)cc21 [Example 17, 1-(11-Oxo-10,11-dihydro-dibenzo[b,f][1,4]oxazegin-2-yl)-3-phenyl-thiourea]
inhibition at 100 µM (nNOS): 7%
inhibition at 100 µM (iNOS): 24%

N=C(Nc1ccc2c(c1)C(=O)Nc1ccccc1O2)c1cccs1 [Example 18, N-(11-Oxo-10,11-dihydro-dibenzo[b,f][1,4]oxazepin-2-yl)-thiophene-2-carboxamidine hyrobromide]
inhibition at 100 µM (nNOS): 25%
inhibition at 100 µM (iNOS): 14%

N=C(Nc1ccc2c(c1)C(=O)Nc1ccccc1N2)c1cccs1 [Example 19, N-(11-Oxo-10,11-dihydro-5H-dibenzo[b,e][1,4]diazepin-2-yl)-thiophene-2-carboxamidine hydrobromide]
inhibition at 100 µM (nNOS): 42%
inhibition at 100 µM (iNOS): 17%
